The values that follow come from patent US8927560B2, “4-Aza-2, 3-didehydropodophyllotoxin compounds and process for the preparation thereof” (Council of Scientific & Industrial Research, priority 2010, dated 2015).

One data set has as its system Hop62. The experiment in a line: SRB in vitro cytotoxicity assay, Hop62 lung cancer cells. Format: cell-based. Particulars: Homo sapiens, HOP-62, 48 h drug exposure, read-out: In vitro anticancer activity GI50, Lung Hop62. The source says:
(§1) Compounds 4a-4z and 4aa-4ae have been evaluated for their in vitro cytotoxicity in selected human cancer cell lines i.e., colon (Colo205), lung (Hop-62, A549), cervix (SiHa), prostate (PC3), oral (KB, DWD, Gurav), Ovarian (A-2780) and breast (MCF7, Zr-75-1) origin by employing the sulforhodamine B (SRB) assay method (Skehn, P.; Storeng, R.; Scudiero, A.; Monks, J.; MeMohan, D.; Vistica, D.; Jonathan, T. W.; Bokesch, H.; Kenney, S.; Boyd M. R. J. Natl. Cancer Inst. 1990, 82, 1107).
(§2) The synthesized compounds have been evaluated for their in vitro cytotoxicity in human cancer cell lines. A protocol of 48 h continuous drug exposure has been used and a sulforhodamine B (SRB) protein assay has been used to estimate cell viability or growth. The cell lines were grown in DMEM medium containing 10% fetal bovine serum and 2 mM L-glutamine and were inoculated into 96 well microtiter plates in […] at plating densities depending on the doubling time of individual cell lines. The microliter plates were incubated at 37_C, 5% CO2, 95% air, and 100% relative humidity for 24 h prior to addition of experimental drugs. Aliquots of […] of the drug dilutions were added to the appropriate microliter wells already containing […] of cells, suiting in the required final drug concentrations. For each compound four concentrations (0.1, 1, 10 and 100 uM) were evaluated and each was done in triplicate wells. Plates were incubated further for 48 h and assay was terminated by the addition of […] of cold trichloro acetic acid (TCA) (final concentration, 10% TCA) and incubated for 60 min at 4_C. The plates were washed five times with tap water and airdried. Sulforhodamine B (SRB) solution ([…]) at 0.4% (w/v) in 1% acetic acid was added to each of the cells, and plates were incubated for 20 min at room temperature. The residual dye was removed by washing five times with 1% acetic acid. The plates were airdried. Bound stain was subsequently eluted with 10 mM trizma base, and the absorbance was read on an ELISA plate reader at a wavelength of 540 nm with 690 nm reference wavelengths. Percent growth was calculated on a plate by plate basis for test wells relative to control wells. The above determinations were repeated three times. Percentage growth was expressed as the (ratio of average absorbance of the test well to the average absorbance of the control wells)*100. Growth inhibition of 50% (GI50) was calculated from [(Ti−Tz)/(C−Tz)]*100 ¼ 50, which is the drug concentration resulting in a 50% reduction in the net protein increase (as measured by SRB staining) in control cells during the drug incubation. Where, Tz ¼ Optical density at time zero, OD of control ¼ C, and OD of test growth in the presence of drug ¼ Ti.

The test system of the next data set is KB. The experiment in a line: SRB in vitro cytotoxicity assay, KB oral cancer cells. Format: cell-based. Particulars: Homo sapiens, 48 h drug exposure, read-out: In vitro anticancer activity GI50, Oral KB.
Source text: as §1, §2

The test system of the next data set is MCF7. The experiment in a line: SRB in vitro cytotoxicity assay, MCF7 breast cancer cells. Format: cell-based. The following applies: Homo sapiens, 48 h drug exposure, read-out: In vitro anticancer activity GI50, Breast MCF7.
Source text: as §1, §2

For another data set, the system named is A-549. The experiment in a line: SRB in vitro cytotoxicity assay, A-549 lung cancer cells. Format: cell-based. Particulars: Homo sapiens, A549, 48 h drug exposure, read-out: In vitro anticancer activity GI50, Lung A-549.
Source text: as §1, §2

The test system of another data set is Zr-75-1. The experiment in a line: SRB in vitro cytotoxicity assay, Zr-75-1 breast cancer cells. Format: cell-based. The following applies: Homo sapiens, 48 h drug exposure, read-out: In vitro anticancer activity GI50, Breast Zr-75-1.
Source text: as §1, §2

The next data set has as its system DWD. The experiment in a line: SRB in vitro cytotoxicity assay, DWD oral cancer cells. Particulars: Homo sapiens, 48 h drug exposure, read-out: In vitro anticancer activity GI50, Oral DWD. Format: cell-based.
Source text: as §1, §2

A further data set relates to Colo 205. The experiment in a line: SRB in vitro cytotoxicity assay, Colo 205 colon cancer cells. Format: cell-based. The following applies: Homo sapiens, 48 h drug exposure, read-out: In vitro anticancer activity GI50, Colon Colo 205.
Source text: as §1, §2

A further data set concerns A-2780. The experiment in a line: SRB in vitro cytotoxicity assay, A-2780 ovarian cancer cells. Format: cell-based. The following applies: Homo sapiens, A2780, 48 h drug exposure, read-out: In vitro anticancer activity GI50, Ovarian A-2780.
Source text: as §1, §2

Another data set has as its system Gurav. The experiment in a line: SRB in vitro cytotoxicity assay, Gurav oral cancer cells. Format: cell-based. Particulars: Homo sapiens, 48 h drug exposure, read-out: In vitro anticancer activity GI50, Oral Gurav.
Source text: as §1, §2

On to `COc1ccc(-c2noc3c2C(c2cc(OC)c(OC)c(OC)c2)C2=C(COC2=O)N3)cc1` (stereo not drawn) [Compound 4aa, 3-(4-methoxyphenyl)-4-(3,4,5-trimethoxyphenyl)-4,5,7,8 tetrahydrofuro[3′,4′:5,6]pyrido[3,2-d]isoxazol-5-one], for which the melting point was in the range of 218 to 219 °C. Also, the GI50 in the data set with Hop62 came out at 2500 nM.

For the molecule `COc1ccc(C2C3=C(COC3=O)Nc3onc(-c4ccc(Cl)cc4)c32)cc1O` (stereo not drawn) [Compound 4ad, 3-(4-chlorophenyl)-4-(3-hydroxy-4-methoxyphenyl)-4,5,7,8-tetrahydrofuro[3′,4′:5,6]pyrido[3,2-d]isoxazol-5-one], the melting point fell in the range of 245 to 246 °C. The GI50 with KB is 2700 nM.

As for `COc1cc(C2C3=C(COC3=O)Nc3c2cc(OC)c(OC)c3OC)ccc1O` (stereo not drawn) [Compound 4ae, 9-(4-hydroxy-3-methoxyphenyl)-5,6,7-trimethoxy-1,3,4,9-tetrahydrofuro[3,4-b]quinolin-1-one], the melting point was 290 to 291 °C. The GI50 in the data set with MCF7 turned out to be 2900 nM.

`COc1nc2c(c(OC)n1)C(c1ccc(O)c(OC)c1)C1=C(COC1=O)N2` (stereo not drawn) [Compound 4b, 5-(4-hydroxy-3-methoxyphenyl)-2,4-dimethoxy-5,6,8,9-tetrahydrofuro[3′,4′:5,6]pyrido[2,3-d]pyrimidin-6-one] gave a melting point of 294 to 296 °C. In addition, in the data set on Hop62, the GI50 was found to be 2700 nM.

The molecule `COc1nc2c(c(OC)n1)C(c1ccc(OC)c(O)c1)C1=C(COC1=O)N2` (stereo not drawn) [Compound 4c, 5-(3-hydroxy-4-methoxyphenyl)-2,4-dimethoxy-5,6,8,9-tetrahydrofuro[3′,4′:5,6]pyrido[2,3-d]pyrimidin-6-one] registered a melting point of 284 to 285 °C. The GI50 with Hop62 turned out to be 2800 nM.

`COc1nc2c(c(OC)n1)C(c1ccc(F)c(OC)c1)C1=C(COC1=O)N2` (stereo not drawn) [Compound 4d, 5-(4-fluoro-3-methoxyphenyl)-2,4-dimethoxy-5,6,8,9-tetrahydrofuro[3′,4′:5,6]pyrido[2,3-d]pyrimidin-6-one] returned a melting point of 267 to 270 °C. In the data set on A-549, the GI50 amounted to 2600 nM. Moreover, in the data set on KB, the GI50 was determined as 2200 nM.

The molecule `COc1cc(C2C3=C(COC3=O)Nc3ccc4cc[nH]c4c32)cc(OC)c1OC` (stereo not drawn) [Compound 4e, 10-(3,4,5-trimethoxyphenyl)-6,7,9,10-tetrahydro-1H-furo[3,4-b]pyrrolo[2,3-f]quinolin-9-one] had a melting point of 299 to 301 °C. For the same molecule, the GI50 in the data set with A-549 amounted to 2400 nM. Also, the 50% growth inhibitory concentration (GI50) in the data set with Zr-75-1 was determined as 2800 nM. For the same molecule, the GI50 in the data set on DWD came out at 2800 nM. Besides, the GI50 in the data set with KB amounted to 2000 nM. Besides, the GI50 in the data set on Colo 205 amounted to 2300 nM. Also, in the data set on A-2780, the GI50 was found to be 2700 nM.

The molecule `COc1cc(C2C3=C(COC3=O)Nc3ccc4cc[nH]c4c32)ccc1O` (stereo not drawn) [Compound 4f, 10-(4-hydroxy-3-methoxyphenyl)-6,7,9,10-tetrahydro-1H-furo[3,4-b]pyrrolo[2,3-f]quinolin-9-one] showed a melting point of 301 to 303 °C. Also, the GI50 with MCF7 was 2300 nM. Besides, in the data set on Zr-75-1, the GI50 worked out at 2000 nM. Besides, the GI50 in the data set on Gurav was determined as 2600 nM. Moreover, the GI50 with DWD stood at 2400 nM. In addition, the GI50 in the data set on Colo 205 was 2500 nM.

`COc1ccc(C2C3=C(COC3=O)Nc3ccc4cc[nH]c4c32)cc1[N+](=O)[O-]` (stereo not drawn) [Compound 4i, 10-(4-methoxy-3-nitrophenyl)-6,7,9,10-tetrahydro-1H-furo[3,4-b]pyrrolo[2,3-f]quinolin-9-one]: in the data set on Colo 205, the GI50 is 2400 nM.

The molecule `COc1cc(C2C3=C(COC3=O)Nc3ccc4cc(C)[nH]c4c32)ccc1F` (stereo not drawn) [Compound 4l, 10-(4-fluoro-3-methoxyphenyl)-2-methyl-6,7,9,10-tetrahydro-1H-furo[3,4-b]pyrrolo[2,3-f]quinolin-9-one] gave a melting point of 198 to 199 °C. In the data set with MCF7, the GI50 was 2600 nM. In addition, in the data set on Hop62, the GI50 is 2400 nM. Moreover, the GI50 in the data set on Gurav was found to be 2500 nM. Also, the GI50 in the data set on DWD stood at 2100 nM. In addition, the GI50 with A-2780 is 2400 nM.

Turning to `COc1ccc(C2C3=C(COC3=O)Nc3ccc4cc(C)[nH]c4c32)c(F)c1` (stereo not drawn) [Compound 4m, 10-(2-fluoro-4-methoxyphenyl)-2-methyl-6,7,9,10-tetrahydro-1H-furo[3,4-b]pyrrolo[2,3-f]quinolin-9-one], the melting point is 205 to 207 °C. The GI50 in the data set on MCF7 was < 100 nM.

Consider `COc1ccc(C2C3=C(COC3=O)Nc3ccc4cn[nH]c4c32)cc1O` (stereo not drawn) [Compound 4p, 10-(3-hydroxy-4-methoxyphenyl)-6,7,9,10-tetrahydro-1H-furo[3,4-b]pyrazolo[3,4-f]quinolin-9-one], for which the melting point was in the range of 243 to 245 °C. The GI50 with Hop62 came to 2600 nM. Further, the GI50 in the data set on Colo 205 is 2600 nM.

In the case of `COc1cc(C2C3=C(COC3=O)Nc3ccc4cn[nH]c4c32)ccc1F` (stereo not drawn) [Compound 4q, 10-(4-fluoro-3-methoxyphenyl)-6,7,9,10-tetrahydro-1H-furo[3,4-b]pyrazolo[3,4-f]quinolin-9-one], the melting point is 307 to 309 °C. Besides, the GI50 in the data set with A-549 came out at 2300 nM. In addition, the GI50 with MCF7 came to 2700 nM. In the data set on Gurav, the GI50 was determined as 2600 nM.

Regarding `COc1cc(C2C3=C(COC3=O)Nc3ccc4ncsc4c32)cc(OC)c1OC` (stereo not drawn) [Compound 4s, 10-(3,4,5-trimethoxyphenyl)-6,7,9,10-tetrahydrofuro[3,4-b][1,3]thiazolo[5,4-f]quinolin-9-one], the melting point is 309 to 310 °C. Further, the GI50 in the data set with A-549 came out at 2400 nM. Also, the GI50 in the data set with Zr-75-1 was determined as 2100 nM. The GI50 in the data set on DWD is 2500 nM. In the data set on KB, the GI50 is 2100 nM. In the data set on Colo 205, the GI50 came out at 2500 nM. Further, the GI50 with A-2780 was determined as 2300 nM.

`COc1cc(C2C3=C(COC3=O)Nc3ccc4nc(C)sc4c32)ccc1[N+](=O)[O-]` (stereo not drawn) [Compound 4w, 10-(3-methoxy-4-nitrophenyl)-2-methyl-6,7,9,10-tetrahydrofuro[3,4-b][1,3]thiazolo[5,4-f]quinolin-9-one] showed a melting point of 190 to 191 °C. In the data set on MCF7, the GI50 was found to be 150 nM.

`COc1ccc(C2C3=C(COC3=O)Nc3ccc4nc(S)[nH]c4c32)cc1O` (stereo not drawn) [Compound 4x, 10-(3-hydroxy-4-methoxyphenyl)-2-sulfanyl-6,7,9,10-tetrahydro-1H-furo[3,4-b]imidazo[4,5-f]quinolin-9-one] gave a melting point of 334 to 337 °C. The GI50 with MCF7 amounted to 2700 nM.

Turning to `COc1cc(C2C3=C(COC3=O)Nc3ccc4nn[nH]c4c32)cc(OC)c1OC` (stereo not drawn) [Compound 4y, 10-(3,4,5-trimethoxyphenyl)-6,7,9,10-tetrahydro-1H-furo[3,4-b][1,2,3]triazolo[4,5-f]quinolin-9-one], the melting point is 324 to 325 °C. Besides, the GI50 with KB was 2900 nM.

For `COc1ccc(C2C3=C(COC3=O)Nc3ccc4nn[nH]c4c32)c(F)c1` (stereo not drawn) [Compound 4z, 10-(2-fluoro-4-methoxyphenyl)-6,7,9,10-tetrahydro-1H-furo[3,4-b][1,2,3]triazolo[4,5-f]quinolin-9-one], the melting point was in the range of 308 to 310 °C. For the same molecule, the GI50 in the data set with MCF7 was < 100 nM.

Usually melting point stands for the temperature of the solid-liquid transition. One may read the GI50 as the concentration giving 50% growth inhibition.
